The record followed here is PMC8424217 (The Journal of Biological Chemistry, 2021).

Peptide text beside a SMILES is read from it. * marks the point of attachment. Palmitoyl = CCCCCCCCCCCCCCCC(=O)*

As a reminder, the Emax is the greatest response seen or fitted, relative to the assay's reference.

Type in all cases: cell-based
The target of assay [1] is T1, hUT (Homo sapiens, UniProt Q9UKP6).
T1 sequence (Q9UKP6 1-389): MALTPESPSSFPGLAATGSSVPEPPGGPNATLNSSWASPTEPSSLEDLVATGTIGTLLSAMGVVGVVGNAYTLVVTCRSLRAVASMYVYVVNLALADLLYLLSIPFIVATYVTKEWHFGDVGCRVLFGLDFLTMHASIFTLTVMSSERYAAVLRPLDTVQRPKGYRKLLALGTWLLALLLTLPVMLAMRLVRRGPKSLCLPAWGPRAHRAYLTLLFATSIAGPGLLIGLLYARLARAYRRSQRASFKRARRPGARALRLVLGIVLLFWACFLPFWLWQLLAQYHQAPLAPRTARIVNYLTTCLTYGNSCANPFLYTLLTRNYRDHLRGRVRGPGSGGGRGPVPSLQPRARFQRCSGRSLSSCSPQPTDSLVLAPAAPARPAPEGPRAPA
Kind of assay: Gq activation, BRET biosensor, HEK 293-hUT cells. Set-up: expressed in transfected cells. Particulars: mean ± SEM; for EC50: n = 3–5, read-out: Gq activation pEC50 (converted). The method, then:
(§1) Figure 6 Signaling signature of hUT-pepducins following hUT receptor activation. […] Each curve represents mean ± SEM of at least three independent concentration-response experiments performed in triplicate.
(§2) HEK 293-hUT cells were grown in DMEM culture media supplemented with 10% foetal bovine serum, HEPES, sodium pyruvate, and G418 (200 μg mL^−1). Passages were performed when cells reached 80% of confluency. Cells were initially plated in 96-well plates at a density of 10,000 cells/well. The following day, the medium is replaced with DMEM culture media supplemented with 2.5% foetal bovine serum (FBS), and 12 h later, cells were transiently transfected with 25 ng/well of a Gq-polycistronic, 25 ng/well of a G12-polycistronic BRET sensor, 25 ng/well of a G13-polycistronic BRET sensor, 2.5 ng/well pIRESB RLucII-ERK-NLS-GFP BRET sensor, 2.5 ng β-arrestin 1-polycistronic BRET sensor, or 2.5 ng β-arrestin 2-polycistronic BRET sensor using Lipofectamine2000 at a ratio of 3:1 (Lipofectamine/plasmid DNA) in serum-free Opti-MEM ([44], [81]). Sixteen hours posttransfection, medium was replaced with DMEM supplemented with 10% FBS, HEPES, sodium pyruvate and G418 (200 μg mL^−1) and cell growth was resumed for another 16 h. Cells were washed with 150 μl PBS solution supplemented with 0.1% of glucose and then incubated with 80 μl of this solution for 2 h. Then, to evaluate Gq and G12 activation, 10 μl of a 1/20 dilution (diluted before use) of coelenterazine 400A (stock at 1 mM in ethanol) in Kreb's buffer and 10 μl of the 10× appropriate concentration of peptide were added, and the luminescence was evaluated with an Infinite M1000 PRO. […] Readings were performed after 5 min using an Infinite M1000 PRO. Filters were set at 410 nm and 515 nm for detecting the Renilla luciferase II (RlucII, donor) and green fluorescent protein 10 (GFP10, acceptor) light emission, respectively. BRET ratio was determined by calculating the ratio of the light emitted by GFP10 over the light emitted by the RlucII.
For orientation: Bioluminescence resonance energy transfer reports proximity on the nanometre scale.

Assay [2] deals with T1, hUT. In words: ERK1/2 phosphorylation, western blot, HEK 293-hUT cells. Set-up: expressed in transfected cells; host or cells: CHO-K1 cells stably expressing hUT (gift from H. Vaudry and C. Dubessy, University of Rouen). To be noted: for effect of YM254890 (Gq inhibitor) on ERK1/2 phosphorylation induced by the peptide: YM254890 100 nM 1 h pretreatment, hUT-Pep2 at 5 min, [Trp^1, Leu^2]hUT-Pep3 at 5 and 10 min, p < 0.05; for effect of YM254890 (Gq inhibitor) on ERK1/2 phosphorylation induced by the peptide / time of maximal ERK1/2 phosphorylation (for [Trp^1, Leu^2]hUT-Pep3: time to reach efficacy similar to hUII): pepducins 10^−5 M; for time of maximal ERK1/2 phosphorylation (for [Trp^1, Leu^2]hUT-Pep3: time to reach efficacy similar to hUII): hUII 10^−7 M. The method, then: Curves represent mean ± SEM of three independent kinetic experiments performed in triplicate.
CHO cells stably expressing hUT (CHO-hUT; gift from Drs H. Vaudry et C. Dubessy, University of Rouen, France) were grown in 12-well plates to 70–80% confluence and starved for 6 h in a serum-free medium. […] Briefly, HEK 293-hUT cells, grown in 12-well plates to 70–80% confluence, were starved for 6 h in a serum-free medium. […] Cells were then rinsed twice with ice-cold PBS and homogenized in 0.5 ml of lysis buffer (20 mM Tris, 150 mM NaCl, 1 mM EDTA, 1 mM EGTA, 1% Triton X-100, 2.5 mM sodium pyrophosphate, 1 mM β-glycerolphosphate, 1 mM Na3VO4, 1 μg mL^−1 leupeptin, 1 mM PMSF, 1 mM DTT) at 4 °C. Insoluble material was removed by centrifugation at 12,000 rpm for 30 min. The extract was treated with Laemmli sample buffer and heated for 5 min at 95 °C. Aliquots were assayed for protein concentration (BioRad) and an equal amount of total protein was subjected to 12% SDS–PAGE, followed by transfer to a nitrocellulose membrane. The membrane was blocked and then probed with primary antibody (phospho-p44/42 MAPK) at the optimal dilution (1/2000) with gentle agitation overnight at 4 °C. After washing with TTBS, membranes were then incubated with secondary antibody, conjugated with horseradish peroxidase (anti-rabbit HRP) diluted in TBST containing 5% skim milk (w/v) for 1 h at room temperature. Immunoreactive species were visualized by enhanced chemiluminescence using X-ray film and Thermo Scientific SuperSignal chemiluminescent substrates according to the manufacturer's instructions. Films were digitized and the intensity of the immunoreactive bands determined using Quantity One software from Bio-Rad.
For orientation: A western blot detects proteins with antibodies after separation by electrophoresis.

For assay [3], the target named is T1, hUT. Kind of assay: G13 activation, BRET biosensor, HEK 293-hUT cells. Particulars: for EC50: HEK 293-hUT, BRET, mean ± SEM, n = 3–5, read-out: G13 activation pEC50 (converted). Set-up: expressed in transfected cells. The method, then:
as §1, §2

Assay [4] has as its system rat neonatal cardiac fibroblasts. In words: Rat cardiac neonatal fibroblast proliferation, high content imaging. To be noted: 10^−6 M, 24 h, three independent experiments in triplicate. The text has this:
Each bar corresponds to the mean ± SEM obtained from three independent experiments conducted in triplicate.
Neonatal cardiac rat fibroblasts, endogenously expressing UT ([82]), were obtained from 1–3-day-old Sprague-Dawley pups as previously reported ([83]). Briefly, hearts obtained from neonatal rats were enzyme-digested and after centrifugation, cells were preplated to separate cardiomyocytes from fibroblasts. As reported, the adherent nonmyocyte fractions correspond predominantly to fibroblasts while the supernatants largely contain the cardiomyocytes. After several washes, attached fibroblasts were trypsinized and then cultured at 37 °C in 96-well plate (6000 cells per well) in low glucose-DMEM supplemented with 7% FBS, 100 units/ml of penicillin, and 100 μg/ml of streptomycin. After 48 h, cells were washed twice with low glucose-DMEM, and starved for 12 h in this medium. […] Cells are incubated with primary anti-smooth muscle α-actin antibody (1/500) in 10% horse serum/PBS overnight at 4 °C and later with secondary anti-rabbit Alexa Fluor 488 (1/1000) for 1 h at RT. Cell staining was performed using cell mask (1 μg mL^−1) in PBS for 30 min at room temperature and with Hoechst dye in PBS (1 μg/ml) for 10 min. Analysis was performed on an Opera Phoenix High Content Imaging System with a 20× water objective.

[5] abbreviates: percentage of the activation induced by hUII (10^−6 M), n = 3–5.

In the case of `CCCCCCCCCCCCCCCC(=O)N[C@@H](Cc1c[nH]c2ccccc12)C(=O)N[C@@H](CC(C)C)C(=O)N[C@@H](CO)C(=O)N[C@@H](CCC(N)=O)C(=O)N[C@@H](CCCNC(=N)N)C(=O)N[C@@H](C)C(=O)N[C@@H](CO)C(=O)N[C@@H](Cc1ccccc1)C(=O)N[C@@H](CCCCN)C(=O)N[C@@H](CCCNC(=N)N)C(=O)N[C@@H](C)C(=O)N[C@@H](CCCNC(=N)N)C(=O)N[C@@H](CCCNC(=N)N)C(N)=O` [[Trp^1, Leu^2]hUT-Pep3] (Palmitoyl-WLSQRASFKRARR-NH2), the EC50 at hUT [1] is 4.57 nM. In addition, the Emax on hUT [1] (setting [5]) came to 29 ± 4%. Also, at hUT [2], the “effect of YM254890 (Gq inhibitor) on ERK1/2 phosphorylation induced by the peptide” value is on record as “modest, but significant, inhibitory effect” and the “time of maximal ERK1/2 phosphorylation (for [Trp^1, Leu^2]hUT-Pep3: time to reach efficacy similar to hUII)” value (“time of maximal ERK1/2 phosphorylation” for short) came out at 10 min. Also, on hUT [2] (YM254890 100 nM, 0-20 min), the “duration of ERK1/2 activation in presence of YM254890” value is “this activation is maintained and did not decrease over the studied period of time”. Also, at hUT [3], the Emax was 185 ± 11% and the EC50 was 309 nM. In addition, the “rat neonatal cardiac fibroblast proliferation” value in assay [4] is reported as “proliferative action in rat neonatal cardiac fibroblasts similar to what was observed with hUII”.
Regarding `CC(C)[C@H](NC(=O)[C@@H]1CSSC[C@H](NC(=O)[C@H](CC(=O)O)NC(=O)[C@@H]2CCCN2C(=O)[C@@H](NC(=O)[C@@H](N)CCC(=O)O)[C@@H](C)O)C(=O)N[C@@H](Cc2ccccc2)C(=O)N[C@@H](Cc2c[nH]c3ccccc23)C(=O)N[C@@H](CCCCN)C(=O)N[C@@H](Cc2ccc(O)cc2)C(=O)N1)C(=O)O` [hUII, urotensin II, reference compound], the Emax at 1 µM at hUT [1] (setting [5]) was 109 ± 5%; on hUT [3], 106 ± 5%. The “time of maximal ERK1/2 phosphorylation” value at hUT [2] was determined as 5 min. The “rat neonatal cardiac fibroblast proliferation” value in assay [4] is “proliferative action in rat neonatal cardiac fibroblasts similar to what was observed with hUII”.
As for `CCCCCCCCCCCCCCCC(=O)N[C@@H](CCCNC(=N)N)C(=O)N1CCC[C@H]1C(=O)N[C@@H](CC(C)C)C(=O)N[C@@H](CC(=O)O)C(=O)N[C@H](C(=O)N[C@H](C(=O)N[C@@H](CCC(N)=O)C(=O)N[C@@H](CCCNC(=N)N)C(=O)N1CCC[C@H]1C(=O)N[C@@H](CCCCN)C(=O)NCC(=O)N[C@@H](Cc1ccc(O)cc1)C(N)=O)C(C)C)[C@@H](C)O` [hUT-Pep2] (Palmitoyl-RPLDTVQRPKGY-NH2), the EC50 was 49 nM at hUT [1] and 468 nM on hUT [3]. Besides, the results for the Emax at hUT [1] (setting [5]) and on hUT [3] were around 9% and 154 ± 10%, respectively. Moreover, the “effect of YM254890 (Gq inhibitor) on ERK1/2 phosphorylation induced by the peptide” value at hUT [2] is recorded as “modest, but significant, inhibitory effect”. Moreover, on hUT [2], the “time of maximal ERK1/2 phosphorylation” value stood at 5 min. Further, the “rat neonatal cardiac fibroblast proliferation” value in assay [4] is “proliferative action in rat neonatal cardiac fibroblasts similar to what was observed with hUII”.
